Assay [1] has as its system HS-PSS. In words: drug sensitivity score (DSS, CellTiter-Glo viability, 72 h) (DSS (dimensionless)); higher = more sensitive; extreme values may be limits of the assay. The essentials: (§1)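 MPNST cell lines and primary human Schwann cells (750–1000 cells per well) went into 384-well plates preprinted with each compound at five concentrations in 10-fold steps. Plates were incubated 72 h at 37 °C, 5% CO2. Viability was read as CellTiter-Glo ATP luminescence, scaled between vehicle and positive-control wells, with duplicates averaged where present. Percent inhibition is at the top concentration; drug sensitivity score and relative IC50 (censored at top concentration) come from four-parameter logistic fits.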
In general terms: ATP-based viability assays read luminescence as a measure of living cells.

Assay [2] has as its system HS-Sch-2. The description is as above. The essentials: as §1
The subject of assay [3] is HSC1 (primary human Schwann cells). The assay is described as above. A digest of the protocol: as §1
In assay [4] the test system is HSC2 (primary human Schwann cells). Described as above. A digest of the protocol: as §1
Assay [5] deals with S1507-2. The assay is described as above. A digest of the protocol:
as §1

The test system of assay [6] is S462. Described as above. A digest of the protocol:
as §1

The test system of assay [7] is ST8814. Described as above. A digest of the protocol:
as §1

Assay [8] concerns STS26T. The description is as above. The essentials: as §1
Assay [9] deals with YST-1. Described as above. The essentials: as §1
Assay [10] concerns HS-PSS. In words: drug sensitivity score (DSS, CellTox-Green cytotoxicity, 72 h) (DSS (dimensionless)); higher = more cytotoxic; extreme values may be limits of the assay. The essentials: (§2)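 MPNST cell lines and primary human Schwann cells were incubated 72 h at 37 °C in 384-well plates holding five 10-fold compound dilutions. CellTox-Green was added before seeding at a final 1:1000 dilution and reported fluorescence from DNA released by disrupted cells. Signals were scaled to vehicle and positive-control wells, and cultures failing plate quality control were dropped. Drug sensitivity score and relative IC50 come from four-parameter logistic fits, with IC50 censored at the top concentration.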

The test system of assay [11] is HSC1 (primary human Schwann cells). The assay is described as above. A digest of the protocol: as §2
For assay [12], the system named is HSC2 (primary human Schwann cells). Described as above. A digest of the protocol: as §2
Assay [13] deals with S1507-2. The assay is described as above. The essentials:
as §2

Assay [14] has as its system ST8814. Described as above. A digest of the protocol:
as §2

For assay [15], the system named is STS26T. The description is as above. The essentials:
as §2

Assay [16] concerns HS-PSS. In words: % inhibition of CellTiter-Glo viability at highest tested concentration (72 h), relative to DMSO and benzethonium chloride controls; higher = more inhibition. The essentials: as §1
The subject of assay [17] is HS-Sch-2. The assay is described as above. The essentials:
as §1

Assay [18] relates to HSC1 (primary human Schwann cells). The description is as above. The essentials: as §1
In assay [19] the test system is HSC2 (primary human Schwann cells). The description is as above. The essentials:
as §1

Assay [20] relates to S1507-2. The assay is described as above. A digest of the protocol:
as §1

The test system of assay [21] is S462. The assay is described as above. A digest of the protocol:
as §1

Assay [22] relates to ST8814. The description is as above. The essentials:
as §1

Assay [23] concerns STS26T. The assay is described as above. The essentials:
as §1

For assay [24], the system named is YST-1. Described as above. The essentials:
as §1

± gives the standard deviation of the averaged measurements.

Take `COc1cc2c(cc1O)CC[C@@H]1[C@@H]2CC[C@]2(C)[C@@H](O)CC[C@@H]12` [2-methoxyestradiol] (max concentration tested 10000 nM): the drug sensitivity score stood at 1.11 with HS-PSS [1]; 10.8 in the assay with HS-Sch-2 [2]; 7.26 in assay [3]; 7.04 in assay [4]; 6.89 ± 0.4 with S1507-2 [5]; 12.8 ± 0.78 in the assay with S462 [6]. Further, the drug sensitivity score is 6.11 in the assay on ST8814 [7]; 12.1 with STS26T [8]; 6.88 in the assay with YST-1 [9]; 0 in the assay on HS-PSS [10]; 0.832 in assay [11]; 3.98 in assay [12]. The drug sensitivity score in the assay with S1507-2 [13] turned out to be 5.59 ± 1; in the assay with ST8814 [14], 5.07; with STS26T [15] it was 11.6. For the same molecule, the “% inhibition” value in the assay with HS-PSS [16] was 26.6%; in the assay on HS-Sch-2 [17], 84.4%; in [18], 66.2%; in assay [19], 66.6%; in the assay on S1507-2 [20], 82 ± 3.8%; in the assay on S462 [21], 98.15 ± 0.87%. For the same molecule, the “% inhibition” value with ST8814 [22] turned out to be 91.9%; with STS26T [23], 99.8%; in the assay with YST-1 [24], 75.8%.

Regarding `O=P1(N(CCCl)CCCl)NCCCO1` (centres undefined) [Cyclophosphamide] (max concentration tested 40000 nM), the drug sensitivity score (with HS-PSS [1]; in the assay with HS-Sch-2 [2]; in [3]; in assay [4]; with S1507-2 [5]; in the assay on S462 [6]) was 0 in each case. In addition, the drug sensitivity score (with ST8814 [7]; with STS26T [8]; in the assay with YST-1 [9]; in the assay on HS-PSS [10]; in assay [11]; in assay [12]) was 0 in each case. In addition, the drug sensitivity score was 2.5 ± 3.5 with S1507-2 [13], 0 in the assay with ST8814 [14] and 0 with STS26T [15]. Moreover, the “% inhibition” value in the assay with HS-PSS [16] was -15%; with HS-Sch-2 [17], -7.77%; in [18] it was 8.38%; in [19], -1.29%; with S1507-2 [20], -7.33 ± 17%; in the assay on S462 [21], -8.093 ± 0.056%. The “% inhibition” value was -3.77% with ST8814 [22], -1.7% in the assay with STS26T [23] and 3.85% with YST-1 [24].

Regarding `CC(=O)[C@]1(O)Cc2c(O)c3c(c(O)c2[C@@H](O[C@H]2C[C@H](N)[C@H](O)[C@H](C)O2)C1)C(=O)c1ccccc1C3=O` [Idarubicin] (max concentration tested 1000 nM), the drug sensitivity score is 10.1 with HS-PSS [1]; 15.7 in the assay with HS-Sch-2 [2]; 18.1 in [3]; 17.6 in assay [4]; 17.1 ± 2.4 in the assay with S1507-2 [5]; 23.5 ± 0.84 in the assay on S462 [6]. Besides, the drug sensitivity score in the assay on ST8814 [7] was 16.2; in the assay with STS26T [8] it was 20.5; in the assay on YST-1 [9] it was 24.2; in the assay on HS-PSS [10], 5.11; in assay [11], 8.63; in assay [12], 7.65. The figures for the drug sensitivity score in the assay with S1507-2 [13], in the assay with ST8814 [14] and with STS26T [15] were 10.6 ± 0.28, 12.2 and 15.8, respectively. Further, the “% inhibition” value in the assay on HS-PSS [16] turned out to be 92.3%; in the assay on HS-Sch-2 [17] it was 102%; in [18], 94.9%; in [19], 95.5%; in the assay with S1507-2 [20], 95.7 ± 1.7%; in the assay with S462 [21] it was 99.5 ± 0.8%. For the same molecule, the “% inhibition” value in the assay with ST8814 [22] came out at 88%; in the assay on STS26T [23], 97.8%; with YST-1 [24], 101%.

With `CO[C@H]1C[C@@H]2CC[C@@H](C)[C@@](O)(O2)C(=O)C(=O)N2CCCC[C@H]2C(=O)O[C@H]([C@H](C)C[C@@H]2CC[C@@H](OP(C)(C)=O)[C@H](OC)C2)CC(=O)[C@H](C)/C=C(\C)[C@@H](O)[C@@H](OC)C(=O)[C@H](C)C[C@H](C)/C=C/C=C/C=C/1C` [Ridaforolimus] (max concentration tested 100 nM), the drug sensitivity score in the assay with HS-PSS [1] was 5.02; with HS-Sch-2 [2], 4.49; in [3] it was 16.8; in [4] it was 15.8; in the assay on S1507-2 [5], 7.07 ± 0.28; in the assay on S462 [6], 8.13 ± 1.3. In addition, the drug sensitivity score in the assay on ST8814 [7] amounted to 8.41; in the assay on STS26T [8] it was 13.1; in the assay with YST-1 [9] it was 9.63; with HS-PSS [10], 0; in assay [11], 0; in [12] it was 0. Besides, the drug sensitivity score in the assay with S1507-2 [13], with ST8814 [14] and in the assay on STS26T [15] was 0 in each case. For the same molecule, the “% inhibition” value with HS-PSS [16] amounted to 28.6%; in the assay on HS-Sch-2 [17], 31%; in assay [18], 51.5%; in assay [19] it was 52.6%; in the assay with S1507-2 [20], 35.9 ± 0.46%; in the assay with S462 [21], 40.4 ± 5.1%. For the same molecule, the “% inhibition” value in the assay with ST8814 [22] is 32.1%; in the assay with STS26T [23], 48.8%; with YST-1 [24], 43.6%.

In the case of `COc1cc2c(NC3CCN(C(C)C)CC3)nc(N3CCC(F)(F)CC3)nc2cc1OCCCN1CCCC1` [UNC0642] (max concentration tested 10000 nM), the drug sensitivity score amounted to 6.56 with HS-PSS [1]; 6.08 in the assay with HS-Sch-2 [2]; 0 in assay [3]; 0 in assay [4]; 8.23 ± 0.62 in the assay on S1507-2 [5]; 5.99 ± 0.77 in the assay on S462 [6]. Further, the drug sensitivity score with ST8814 [7] turned out to be 5.87; with STS26T [8] it was 5.57; in the assay on YST-1 [9], 5.26; with HS-PSS [10], 4.78; in assay [11], 0; in assay [12], 0. For the same molecule, the drug sensitivity score in the assay on S1507-2 [13] is 7.07 ± 1.3; in the assay on ST8814 [14], 5.37; in the assay on STS26T [15] it was 6.03. Besides, the “% inhibition” value was 99.3% in the assay with HS-PSS [16]; 100% in the assay on HS-Sch-2 [17]; 7.89% in assay [18]; 7.25% in assay [19]; 101.9 ± 0.52% in the assay with S1507-2 [20]; 93 ± 3% in the assay on S462 [21]. In addition, the “% inhibition” value was found to be 99.1% in the assay with ST8814 [22], 96.5% in the assay on STS26T [23] and 94.9% in the assay with YST-1 [24].

For the molecule `C=CCNC1=C2C[C@@H](C)C[C@H](OC)[C@H](O)[C@@H](C)/C=C(\C)[C@H](OC(N)=O)[C@@H](OC)/C=C\C=C(/C)C(=O)NC(=CC1=O)C2=O` [Tanespimycin] (max concentration tested 10000 nM), the drug sensitivity score in the assay on HS-PSS [1] stood at 19; in the assay with HS-Sch-2 [2], 22.4; in [3], 15.9; in assay [4], 16.7; in the assay with S1507-2 [5], 20.8 ± 0.74; with S462 [6] it was 17.9 ± 1.3. Further, the drug sensitivity score was found to be 21 in the assay with ST8814 [7]; 22.2 in the assay with STS26T [8]; 22.6 with YST-1 [9]; 5.08 in the assay with HS-PSS [10]; 17.9 in assay [11]; 19.1 in [12]. In addition, the drug sensitivity score in the assay on S1507-2 [13] was 14.6 ± 1.2; with ST8814 [14], 7.63; in the assay with STS26T [15], 14. For the same molecule, the “% inhibition” value in the assay with HS-PSS [16] is 89.1%; with HS-Sch-2 [17] it was 100%; in assay [18], 96.8%; in assay [19] it was 98.2%; in the assay on S1507-2 [20], 98 ± 0.1%; in the assay with S462 [21] it was 99.25 ± 0.39%. Besides, the “% inhibition” value worked out at 96.5% in the assay with ST8814 [22], 96.1% with STS26T [23] and 75.3% in the assay on YST-1 [24].

A word on the % inhibition: it is the drop in the measured response relative to a control, in per cent.

For the origin of these results see the supplement of paper PMC5579334.
